# Laboratory results published in paper PMC6868653 (Pharmacology Research & Perspectives, 2019).
# Numbering of substitutions follows the chain as printed. Where “and” joins values, the source holds several entries; their conditions need not be identical. Identical values can stand only once. Like-named read-outs stand apart in the source and are kept apart here.
# How the values were obtained:
# [1] = target: T1, hGPR132a (Homo sapiens, UniProt Q9UNW8); assay type: cell-based; conditions: for pEC50, Human GPR132a, Yeast: mean ± SD, IA = inactive, bound = top concentration tested; for Emax, Human GPR132a, Yeast: normalized to the effect of NPGly
# T1 sequence (Q9UNW8 1-380): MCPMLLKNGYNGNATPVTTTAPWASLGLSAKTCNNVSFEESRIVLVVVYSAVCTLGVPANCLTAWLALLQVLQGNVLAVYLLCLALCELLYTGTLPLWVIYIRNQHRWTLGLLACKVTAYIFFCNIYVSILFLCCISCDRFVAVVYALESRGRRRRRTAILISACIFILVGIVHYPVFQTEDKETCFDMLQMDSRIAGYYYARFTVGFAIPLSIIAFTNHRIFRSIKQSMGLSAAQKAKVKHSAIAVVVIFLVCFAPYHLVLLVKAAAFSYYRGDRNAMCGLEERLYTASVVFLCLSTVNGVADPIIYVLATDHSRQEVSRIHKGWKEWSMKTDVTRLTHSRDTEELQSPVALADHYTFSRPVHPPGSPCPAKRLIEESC
# [2] = target: Rat GPR132 (Rattus norvegicus, UniProt A0A8I6A964); test: Yeast pheromone-response pathway reporter assay, yeast expressing rGPR132; assay type: cell-based; conditions: for pEC50, Rat GPR132, Yeast: mean ± SD; for Emax, Rat GPR132, Yeast: normalized to the effect of 9‐HODE
# [3] = target: T2, Mouse GPR132 (Mus musculus, UniProt Q9Z282); test: β‐arrestin association; assay type: cell-based; conditions: for pEC50, Mouse GPR132, β‐arrestin: mean ± SD; for Emax, Mouse GPR132, β‐arrestin: normalized to the effect of SB‐583831
# T2 sequence (Q9Z282 1-382): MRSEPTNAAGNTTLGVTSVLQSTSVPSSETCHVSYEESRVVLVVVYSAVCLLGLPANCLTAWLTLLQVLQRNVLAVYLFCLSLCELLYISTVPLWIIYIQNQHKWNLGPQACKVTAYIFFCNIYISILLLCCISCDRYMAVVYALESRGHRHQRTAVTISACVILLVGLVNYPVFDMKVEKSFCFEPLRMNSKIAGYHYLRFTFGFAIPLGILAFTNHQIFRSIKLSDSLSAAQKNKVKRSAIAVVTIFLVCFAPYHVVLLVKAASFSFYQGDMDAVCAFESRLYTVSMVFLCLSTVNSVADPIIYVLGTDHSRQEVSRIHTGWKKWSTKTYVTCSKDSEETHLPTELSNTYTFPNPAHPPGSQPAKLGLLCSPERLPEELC
# [4] = target: T1, hGPR132a; test: Ca2+ microfluorimetry in RBL‐hGPR132a cells; assay type: cell-based; conditions: 10 µmol/L ligand, mean ± SE
# [5] = tested on: parental RBL cells; test: Ca2+ microfluorimetry in parental RBL cells; assay type: cell-based, rat; conditions: 10 µmol/L ligand, mean ± SE
# [6] = target: T3, hGPR132a Y200A (Homo sapiens, UniProt Q9UNW8, Y200A); test: Yeast assay, hGPR132a mutant Y200A; conditions: mean ± SD
# T3 sequence (Q9UNW8 1-380 Y200A): T1 sequence (Q9UNW8 1-380) with Y200A
# [7] = target: T1, hGPR132a; test: β‐arrestin association; assay type: cell-based; conditions: for pEC50, Human GPR132a, β‐arrestin: mean ± SD; for Emax, Human GPR132a, β‐arrestin: normalized to the effect of SB‐583831
# [8] = target: human CB2 (Homo sapiens, UniProt P34972); test: Yeast assay, specificity receptor human CB2; assay type: cell-based
# [9] = tested on: CB2; conditions: tested up to 10 µmol/L; cited from earlier work
# [10] = target: T4, hGPR132a R203A (Homo sapiens, UniProt Q9UNW8, R203A); test: Yeast assay, hGPR132a mutant R203A; conditions: mean ± SD
# T4 sequence (Q9UNW8 1-380 R203A): T1 sequence (Q9UNW8 1-380) with R203A
# [11] = target: T1, hGPR132a; test: Yeast assay hGPR132a, antagonist mode / Schild analysis; assay type: cell-based; conditions: agonist SB‐583831
# Sequence of Rat GPR132 (A0A8I6A964 1-384): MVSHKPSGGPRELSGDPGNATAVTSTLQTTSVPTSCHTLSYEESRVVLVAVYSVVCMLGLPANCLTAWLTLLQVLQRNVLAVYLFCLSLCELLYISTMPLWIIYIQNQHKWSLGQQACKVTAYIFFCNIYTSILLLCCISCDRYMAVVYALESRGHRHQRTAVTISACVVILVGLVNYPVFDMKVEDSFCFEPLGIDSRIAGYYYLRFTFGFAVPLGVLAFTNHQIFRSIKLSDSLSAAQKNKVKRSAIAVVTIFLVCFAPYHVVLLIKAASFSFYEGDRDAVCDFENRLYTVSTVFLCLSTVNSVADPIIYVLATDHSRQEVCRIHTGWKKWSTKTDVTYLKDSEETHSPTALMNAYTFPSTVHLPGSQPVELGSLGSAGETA
# Sequence of human CB2 (P34972 whole entry): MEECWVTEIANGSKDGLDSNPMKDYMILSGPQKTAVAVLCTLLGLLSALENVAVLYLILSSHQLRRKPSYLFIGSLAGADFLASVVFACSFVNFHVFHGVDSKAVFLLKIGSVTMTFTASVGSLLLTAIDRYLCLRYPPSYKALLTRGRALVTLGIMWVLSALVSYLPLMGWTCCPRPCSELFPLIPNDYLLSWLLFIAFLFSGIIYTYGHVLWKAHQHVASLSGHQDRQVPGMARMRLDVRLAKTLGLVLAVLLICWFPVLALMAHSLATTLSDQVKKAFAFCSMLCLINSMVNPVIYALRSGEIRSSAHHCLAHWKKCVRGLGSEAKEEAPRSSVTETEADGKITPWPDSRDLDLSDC
SMILES,"pEC50, Human GPR132a, Yeast [1]","pEC50, Rat GPR132, Yeast [2]","Emax, Rat GPR132, Yeast [2] [%]","pEC50, Mouse GPR132, β‐arrestin [3]","Emax, Mouse GPR132, β‐arrestin [3] [%]","Emax, Human GPR132a, Yeast [1]","pEC50, Human GPR132a, β‐arrestin [7]","Emax, Human GPR132a, β‐arrestin [7]",further results
"CCCCC/C=C\C=C\C(O)CCCCCCCC(=O)O (stereo not shown) [9‐HODE, 9‐hydroxyoctadecadienoic acid]",5.9 ± 0.14 (4),6.2 ± 0.12 (5),100,5.6 ± 0.23 (5),97 ± 6,–,–,–,"Ca2+ transient, peak response [4]: 0.122 ± 0.016 ratio units; Ca2+ transient, peak response [5]: 0.023 ± 0.003 ratio units"
"CCCCCCC(C)(C)c1ccc([C@@H]2C[C@H](O)CC[C@H]2CCCO)c(O)c1 [CP‐55,940]",–,–,–,–,–,full agonists,–,–,"EC50 [1]: 3.16 µM; Emax ([1]; read-out: Emax, Human GPR132a, Yeast): 102 ± 3%; EC50 [2]: > 3.16 µM; pEC50, Y200A [6]: abolished"
"CCCCC/C=C\C/C=C\CCCCCCCC(N)=O [Linoleamide, linoleamide]",5.8 ± 0.01 (3),5.9 ± 0.21 (2),37 ± 5,<5 (1),–,79 ± 11%,5.5 (1),22%,–
CCCCC/C=C\C/C=C\CCCCCCCC(=O)O [Linoleic acid],–,–,–,–,–,–,–,–,EC50 [1]: > 100 µM; agonist activity at hGPR132a in yeast ([1]; tested up to 100 µmol/L): no detectable agonist activity; EC50 [7]: > 10 µM
"CCCCC/C=C\C/C=C\C/C=C\C/C=C\CCCC(=O)NCC(=O)O [NAGly, N‐arachidonoylglycine]",<4.5 (3),5.3 ± 0.09 (4),87 ± 12,–,–,38%,–,–,"Emax, CB2, yeast [8]: 17±2%; pEC50, CB2, yeast [8]: 5.6 ± 0.3; binding to CB2 [9]: does not bind"
"CCCCC/C=C\C/C=C\C/C=C\C/C=C\CCCC(=O)N[C@@H](Cc1ccc(O)cc1)C(=O)O [NATyr, N‐arachidonyltyrosine]",–,<4 (3),–,–,–,–,–,–,–
"CC/C=C\C/C=C\C/C=C\C/C=C\C/C=C\C/C=C\CCC(=O)NCC(=O)O [NDGly, N‐docosahexanoylglycine]",<4.4 (4),–,–,–,–,33%,<5 (2),–,–
"CCCCC/C=C\C/C=C\CCCCCCCC(=O)NCC(=O)O [NLGly, N‐linoleoylglycine]",5.8 ± 0.08 (3),6.5 ± 0.36 (4),68 ± 7,5.3 (1),40,84 ± 6%,5.5 ± 0.23 (2),39±4% and 38 ± 4%,"Ca2+ transient, peak response [4]: 0.138 ± 0.03 ratio units; Ca2+ transient, peak response [5]: 0.040 ± 0.008 ratio units; pEC50, R203A [10]: abolished responses"
"CCCCCCCC/C=C\CCCCCCCC(=O)NCC(=O)O [NOGly, N‐oleoylglycine]",5.1 ± 0.24 (3),–,–,5.3 ± 0.05 (2),44 ± 10,95 ± 6%,5.6 ± 0.18 (2),29 ± 15%,"pEC50, R203A [10]: eliminated the activity"
"CCCCCCCC/C=C\CCCCCCCC(=O)N[C@@H](CO)C(=O)O [NOSer, N‐oleoylserine]",5.8 ± 0.07 (4),–,–,–,–,21 ± 5%,–,–,–
"CCCCCCCCCCCCCCCC(=O)NCC(=O)O [NPGly, N‐palmitoylglycine]",6.2 ± 0.16 (7),7.0 ± 0.12 (4),53 ± 14,<5 (2),11,–,<5 (3),14%,"pEC50, R203A [10]: abolished responses"
"CCCCCCCCCCCCCCCCCC(=O)NCC(=O)O [NSGly, N‐stereoylglycine]",5.1 ± 0.08 (3),–,–,<5 (1),–,80 ± 4%,5.4 (1),23%,–
CCCc1nc2c(C)cc(-c3nc4ccccc4n3C)cc2n1Cc1ccc(-c2ccccc2C(=O)O)cc1 [telmisartan],–,–,–,–,–,–,–,–,Schild Hill slope nH [11]: 1.9
